Test results reported in patent publication US12453358B2, “Theanine-producing strain and use thereof in tea fermentation production” (GUANGZHOU ZHONGZHUANG BEAUTY COSMETICS CO., LTD, priority 2024, dated 2025).

B1: CsAlaDC-I177Y (protein)
chain: MEGTVSVLSNVSKVELLSKCFDLITIPVEPLPPVVASNGVAGGETKKMKEKDIVLGKNVHTTSLTITEPDVDDDSTSDMEAFMAGVLVRYRKTLIEKTKYHLGYPFNLDLDYGPLAELQHFAINNLGDPFIESNYGVHSRQFEVGVLDWFARLWEIEQKEYWGYITNGGTEGNLHGYLVGREVFPDGIFYTSRESHYSIFKAARMYRMECVKVGTLINGEIDCADFKAKLLSNKDKPAIINLNIGTTVKGAVDDIDLVIQTLEECGFSHDRFYIHCDGALFGFMMPFLNRGPKITFKKPIGSVSVSGHKFMGCPTPCGVQITRLEHINALSRNVEYLASRDATITGSRNGHSPIILWYALNRKGFKGFQKEVQKCLRNAHYLKDRLREAGISAMLNELSSTVVFERPLDEEFVRRWQLACEGNMAHVIVMPNVTIEKLDEFLNELVQKRANWYNDGKAGPPCLAPDIGSENCDCDLHK

Tests used:
[1] = test system: MMP-1; assay: Anti-wrinkle index test: MMP-1 content in supernatant of UVA-stimulated fibroblasts (ELISA); type: cell-based, human; details: UVA 7 J/cm^2, samples 24 h, black tea fermentation liquor 6%, VC 80 µg/ml, GSH 20 m/ml
Description: (§1) Test of anti-wrinkle index of fibroblasts: fibroblasts were set with a blank control group, a model group, a positive control group and a sample group. The number of cells per well was controlled to be 5×10^5. After incubation at 37° C. for 24 h in a 5% CO2 incubator, the medium was removed and a small amount of PBS (pH of 7.4) was added to just cover the cells. The cells were stimulated with UVA at the UV radiation dose of 7 J/cm^2, and the blank control group was not radiated. PBS was discarded, samples with different concentrations were added, with the addition concentration of the black tea fermentation liquor being 6%, VC being 80 µg/ml, and GSH being 20 m/ml; and the cells were stimulated for 24 h. The cell culture supernatants were centrifuged for 15 min at 4° C. and 1000 g, and the supernatants were tested for MMP-1 content using human matrix metalloproteinase-1 (MMP-1) ELISA Kit. The cell suspension was diluted with PBS (pH of 7.2-7.4) to obtain a cell concentration of 1×10^6 cells/mL, and the cells were ruptured after repeated freeze-thaw treatment. The cells were centrifuged at 1000 g for 20 min to obtain the supernatant, which was used to test the CoLI content using a type I collagen (CoLI) test box, and test the HA content using human hyaluronic acid (HA) ELISA Kit. All operations were conducted in accordance with the kit instructions.

[2] = test system: hyaluronic acid (HA); assay: Anti-wrinkle index test: HA content in UVA-stimulated fibroblasts (ELISA); type: cell-based, human; details: UVA 7 J/cm^2, samples 24 h, black tea fermentation liquor 6%, VC 80 µg/ml, GSH 20 m/ml
Description: as §1

[3] = test system: type I collagen (CoLI); assay: Anti-wrinkle index test: CoL I content in UVA-stimulated fibroblasts (type I collagen test box); type: cell-based; details: UVA 7 J/cm^2, samples 24 h, black tea fermentation liquor 6%, VC 80 µg/ml, GSH 20 m/ml
Description: as §1

[4] = test system: theanine synthesis system; assay: High throughput screening of alanine decarboxylase CsAlaDC mutant enzyme in theanine synthesis system; type: biochemical, Escherichia coli
Description: First, a BL21-GMAS-CsAlaDC recombinant single colony was selected and loaded onto a 96-well plate, added into a 800 μL LB medium, and cultured at 37° C. and 900 r/min for 6 h; thereafter, IPTG (isopropyl-3-D-thiogalactoside) at a final concentration of 0.1 mM was added, and cultured at 24° C. for 16 h. Into the 96-well plate, 0.1 mL glycerol, 200 μL potassium glutamate of 50 mM, 200 μL alanine of 50 mM, 50 μL ATP of 10 mM, 80 μL MgCl2 of 5 mM, 85 μL DTT of 10 mM, and 85 μL Tris-HCl of 100 mM (pH 7.5) were sequentially added, to form a theanine synthesis system. The synthesis reaction was conducted for 24 h in a 30° C. water bath and repeated three times. […]
Color developing solution: 1.0 g/L soluble starch was weighed, mixed with distilled water, and boiling distilled water was added. […] After cooling, insoluble substances were filtered through a quantitative filter paper, and 1.0 g sodium hydroxide was added. […]
10 mL EP tubes were taken, 1 mL theanine sample and 4 mL sodium bicarbonate solution were added to one tube, and 5 mL sodium bicarbonate solution was added to the other tube, mixed and then stood for 5 min. […] Immediately after being mixed well, their absorbance values were respectively measured at the wavelength of 570 nm on the spectrophotometer by using distilled water as reference and with a cuvette. A high absorbance at 570 nm indicates a high theanine content. […]

Molecule	MMP-1 content [1]	HA content [2]	CoL I content [3]	content of theanine catalyzed by the enzyme ([4]; BL21-GMAS-CsAlaDC recombinant, glutamate + alanine + ATP, no ethylamine, 30° C., 24 h) [µM]	theanine content higher than that of original enzyme CsAlaDC ([4]; compared with original enzyme CsAlaDC) [%]
N[C@@H](CCC(=O)N[C@@H](CS)C(=O)NCC(=O)O)C(=O)O [GSH]	21.17	5.45	6.89		
O=C1O[C@H]([C@@H](O)CO)C(O)=C1O [VC]	20.42	4.38	2.45		
B1				93.6	85
